In data set [1] the test system is DLD-1. The experiment in a line: Cytotoxicity against human colon cancer cells (DLD-1). Format: functional, cell-based.
Data set [2] in a line: The compound was tested for Binding constant against DNA. The data set is classed as ADME.
Data set [3] relates to P388. Description: Cytotoxicity against murine leukemia cell line (P388). The conditions noted are these: Mus musculus. The data set is classed as functional, cell-based.
Data set [4] concerns HCT-116. Description: Cytotoxicity against human colon cancer cells (HCT116). The data set is classed as functional, cell-based.
The nature of data set [5]: The compound was tested for free energy change at binding to DNA. The data set is classed as ADME.
Data set [6] has as its system MKN-45. The experiment in a line: Cytotoxicity against human gastric cancer cells (MKN-45). The conditions noted are these: MKN-45, Stomach. Format: functional, cell-based.

The structures appear in SMILES notation.

These results are taken from ChEMBL document CHEMBL1132653, “Substitution at the F-ring N-imide of the indolocarbazole antitumor drug NB-506 increases the cytotoxicity, DNA binding, and topoisomerase I inhibition activities” (J Med Chem, 1999).

On to `O=CNN1C(=O)c2c(c3c4cccc(O)c4n(C4OC(CO)C(O)C(O)C4O)c3c3[nH]c4c(O)cccc4c23)C1=O` (centres undefined), for which the IC50 in data set [1] was 2100 nM; in data set [3], 62 nM; in data set [4], 120 nM; in data set [6], 390 nM. Besides, the K/10e4 in data set [2] turned out to be 2.64 M⁻¹. Further, the -Delta G obs in data set [5] is 5.91 kcal/mol.

`O=C1c2c(c3c4cccc(O)c4n(C4OC(CO)C(O)C(O)C4O)c3c3[nH]c4c(O)cccc4c23)C(=O)N1NC(CO)CO` (centres undefined) displayed a K/10e4 in data set [2] of 8.19 M⁻¹. Besides, the IC50 in data set [4] amounted to 32 nM. Further, the “-Delta G obs” value in data set [5] turned out to be 6.56 kcal/mol.

For orientation: IC50 means the midpoint of a concentration-inhibition curve. Higher therefore signals weaker potency.
